Assay results published in BigSolDB 2.1.

OC[C@@H](O)C(O)[C@@H](O)CO (some centres not stated)
Settings	solubility (mole fraction)
in DMF, 293.21 K	0.0411
in DMF, 298.29 K	0.0504
in DMF, 303.26 K	0.0609
in DMF, 308.24 K	0.0736
in DMF, 313.22 K	0.0895
in DMF, 318.32 K	0.11
in DMF, 323.2 K	0.134
in DMF, 328.24 K	0.166
in DMF, 333.27 K	0.204
in acetone, 293.29 K	0.000203
in acetone, 298.18 K	0.00024
in acetone, 303.26 K	0.000304
in acetone, 308.22 K	0.000401
in acetone, 313.2 K	0.000543
in acetone, 318.23 K	0.000743
in acetone, 323.2 K	0.00101
in ethanol, 293.23 K	0.00173
in ethanol, 298.28 K	0.00242
in ethanol, 303.17 K	0.00309
in ethanol, 308.21 K	0.00397
in ethanol, 313.19 K	0.00522
in ethanol, 318.29 K	0.00709
in ethanol, 323.24 K	0.00966
in ethanol, 328.19 K	0.0132
in ethanol, 333.22 K	0.0179
in isopropanol, 293.28 K	0.00113
in isopropanol, 298.2 K	0.00154
in isopropanol, 303.23 K	0.00212
in isopropanol, 308.19 K	0.00268
in isopropanol, 313.32 K	0.00342
in isopropanol, 318.21 K	0.00443
in isopropanol, 323.16 K	0.00588
in isopropanol, 328.21 K	0.00798
in isopropanol, 333.27 K	0.0109
in isopropanol, 338.19 K	0.0146
in isopropanol, 343.23 K	0.0194
in n-butanol, 293.16 K	0.00113
in n-butanol, 298.21 K	0.00154
in n-butanol, 303.26 K	0.00212
in n-butanol, 308.27 K	0.00268
in n-butanol, 313.22 K	0.00342
in n-butanol, 318.16 K	0.00443
in n-butanol, 323.23 K	0.00588
in n-butanol, 328.32 K	0.00798
in n-butanol, 333.24 K	0.0109
in n-butanol, 338.22 K	0.0146
in n-butanol, 343.76 K	0.0194
in n-pentanol, 293.2 K	0.000298
in n-pentanol, 298.18 K	0.000483
in n-pentanol, 303.26 K	0.000734
in n-pentanol, 308.29 K	0.00101
in n-pentanol, 313.19 K	0.00136
in n-pentanol, 318.24 K	0.00188
in n-pentanol, 323.29 K	0.00263
in n-pentanol, 328.23 K	0.00364
in n-pentanol, 333.22 K	0.005
in n-pentanol, 338.33 K	0.00682
in n-pentanol, 343.24 K	0.00903
in toluene, 293.26 K	3.99e-05
in toluene, 298.28 K	4.18e-05
in toluene, 303.19 K	4.52e-05
in toluene, 308.17 K	5e-05
in toluene, 313.23 K	5.63e-05
in toluene, 318.33 K	6.42e-05
in toluene, 323.21 K	7.31e-05
in toluene, 328.22 K	8.37e-05
in toluene, 333.3 K	9.6e-05
in toluene, 338.16 K	0.000109
in toluene, 343.19 K	0.000124
in water, 293.28 K	0.162
in water, 298.3 K	0.18
in water, 303.17 K	0.203
in water, 308.21 K	0.232
in water, 313.29 K	0.266
in water, 318.26 K	0.302
in water, 323.25 K	0.339
in water, 328.21 K	0.377
